# In article doi:10.1101/2025.11.11.687791v2, “Structural basis for multiple binding modes of antimalarial ligands targeting Plasmodium falciparum NCR1” (biorxiv, 2026):
# How the values were obtained:
# Format in all cases: binding
# PfNCR1 [1] = biological target: T1, PfNCR1 (Plasmodium falciparum, UniProt Q8I266); assay: tryptophan fluorescence quenching; settings: purified protein in GDN; ecto site
# T1 construct: gene NCR1; CHS added for structural samples
# T1 sequence (Q8I266 1-1470): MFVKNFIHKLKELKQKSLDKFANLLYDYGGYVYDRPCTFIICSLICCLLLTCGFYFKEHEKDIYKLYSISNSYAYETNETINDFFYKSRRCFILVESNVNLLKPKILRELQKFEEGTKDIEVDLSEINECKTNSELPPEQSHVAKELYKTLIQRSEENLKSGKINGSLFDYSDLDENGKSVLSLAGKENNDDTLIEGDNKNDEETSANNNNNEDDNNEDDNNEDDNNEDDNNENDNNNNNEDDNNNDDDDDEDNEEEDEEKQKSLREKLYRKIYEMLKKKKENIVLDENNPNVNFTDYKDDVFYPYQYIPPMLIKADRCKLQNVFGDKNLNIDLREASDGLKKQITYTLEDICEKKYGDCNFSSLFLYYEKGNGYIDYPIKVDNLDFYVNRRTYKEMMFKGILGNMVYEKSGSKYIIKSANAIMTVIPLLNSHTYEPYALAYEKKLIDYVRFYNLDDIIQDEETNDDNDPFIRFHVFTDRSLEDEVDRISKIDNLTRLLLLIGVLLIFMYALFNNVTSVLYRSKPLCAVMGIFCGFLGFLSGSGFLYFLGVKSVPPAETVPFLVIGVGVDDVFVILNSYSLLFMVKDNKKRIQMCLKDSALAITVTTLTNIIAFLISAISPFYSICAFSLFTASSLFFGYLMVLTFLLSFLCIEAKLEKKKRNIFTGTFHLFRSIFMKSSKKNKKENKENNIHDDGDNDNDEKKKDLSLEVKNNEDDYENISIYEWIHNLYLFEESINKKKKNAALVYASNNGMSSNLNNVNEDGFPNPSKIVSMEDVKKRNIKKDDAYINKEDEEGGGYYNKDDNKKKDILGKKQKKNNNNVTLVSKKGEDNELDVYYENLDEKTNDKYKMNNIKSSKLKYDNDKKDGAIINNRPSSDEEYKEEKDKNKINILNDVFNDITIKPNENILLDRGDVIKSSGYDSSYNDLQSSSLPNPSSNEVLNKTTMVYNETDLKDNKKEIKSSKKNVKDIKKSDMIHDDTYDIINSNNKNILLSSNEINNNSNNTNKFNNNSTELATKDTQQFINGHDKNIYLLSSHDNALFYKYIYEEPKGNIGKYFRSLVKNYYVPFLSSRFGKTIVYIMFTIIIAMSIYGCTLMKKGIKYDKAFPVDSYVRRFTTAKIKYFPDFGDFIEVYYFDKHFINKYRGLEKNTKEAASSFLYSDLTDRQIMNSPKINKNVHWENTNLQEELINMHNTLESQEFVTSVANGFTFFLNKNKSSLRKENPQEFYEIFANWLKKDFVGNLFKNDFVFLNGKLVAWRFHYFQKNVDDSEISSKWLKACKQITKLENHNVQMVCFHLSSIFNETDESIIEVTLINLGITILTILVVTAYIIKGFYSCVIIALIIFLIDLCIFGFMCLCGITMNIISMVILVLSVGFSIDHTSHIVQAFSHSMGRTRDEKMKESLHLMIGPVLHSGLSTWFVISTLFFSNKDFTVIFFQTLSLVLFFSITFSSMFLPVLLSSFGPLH
# PfNCR1 [2] = biological target: T1, PfNCR1; assay: cryo-EM structure of the complex, […] Å; settings: 1 mM compound; ecto site, displaces CHS
# PfNCR1 [3] = biological target: T1, PfNCR1; assay: cryo-EM structure of the complex; settings: ecto site, alongside CHS; GDN
Compound,apparent Kd (PfNCR1 [1]),"cryo-EM structure of the complex, 3.69 Å (PfNCR1 [2])",cryo-EM structure of the complex (PfNCR1 [3])
"CC(C)c1cccc(C(NC(=O)C2Cc3ccccc3CN2C(=O)c2cccc(N3CCOCC3)c2)C2CCCC2)c1 (stereo not drawn) [Compound 2, MMV028038]",tryptophan quenching-based binding assays revealed the apparent Kd values in the micromolar range,this ligand completely displaces the CHS molecule in the ECD sterol site,
"COc1ccc(N2CCN(C(CNC(=O)c3c(F)cccc3F)c3ccc4c(c3)OCO4)CC2)cc1 (stereo not drawn) [Compound 4, G856-4236]",,,the new compound was bound to the ecto site without displacing the sterol
